Test results as given in patent US7053107B2, “Indazole compounds and pharmaceutical compositions for inhibiting protein kinases, and methods for their use” (Agouron Pharmaceuticals, Inc., priority 2002, dated 2006).
pIC50: −log10 of the molar value.

Columns and labels:
PDGFRβ = molecular target: T1, PDGFRβ (Homo sapiens, UniProt P09619); assay: PAE-PDGFRβ Phosphorylation in PAE-PDGFRB Cells Assay; type: cell-based; conditions: PAE cells overexpressing human PDGFRβ; read-out: PAE PDGFR autophos IC50
T1 construct: expressed in transfected cells; host or cells: porcine aorta endothelial (PAE) cells
T1 sequence (P09619 33-1106): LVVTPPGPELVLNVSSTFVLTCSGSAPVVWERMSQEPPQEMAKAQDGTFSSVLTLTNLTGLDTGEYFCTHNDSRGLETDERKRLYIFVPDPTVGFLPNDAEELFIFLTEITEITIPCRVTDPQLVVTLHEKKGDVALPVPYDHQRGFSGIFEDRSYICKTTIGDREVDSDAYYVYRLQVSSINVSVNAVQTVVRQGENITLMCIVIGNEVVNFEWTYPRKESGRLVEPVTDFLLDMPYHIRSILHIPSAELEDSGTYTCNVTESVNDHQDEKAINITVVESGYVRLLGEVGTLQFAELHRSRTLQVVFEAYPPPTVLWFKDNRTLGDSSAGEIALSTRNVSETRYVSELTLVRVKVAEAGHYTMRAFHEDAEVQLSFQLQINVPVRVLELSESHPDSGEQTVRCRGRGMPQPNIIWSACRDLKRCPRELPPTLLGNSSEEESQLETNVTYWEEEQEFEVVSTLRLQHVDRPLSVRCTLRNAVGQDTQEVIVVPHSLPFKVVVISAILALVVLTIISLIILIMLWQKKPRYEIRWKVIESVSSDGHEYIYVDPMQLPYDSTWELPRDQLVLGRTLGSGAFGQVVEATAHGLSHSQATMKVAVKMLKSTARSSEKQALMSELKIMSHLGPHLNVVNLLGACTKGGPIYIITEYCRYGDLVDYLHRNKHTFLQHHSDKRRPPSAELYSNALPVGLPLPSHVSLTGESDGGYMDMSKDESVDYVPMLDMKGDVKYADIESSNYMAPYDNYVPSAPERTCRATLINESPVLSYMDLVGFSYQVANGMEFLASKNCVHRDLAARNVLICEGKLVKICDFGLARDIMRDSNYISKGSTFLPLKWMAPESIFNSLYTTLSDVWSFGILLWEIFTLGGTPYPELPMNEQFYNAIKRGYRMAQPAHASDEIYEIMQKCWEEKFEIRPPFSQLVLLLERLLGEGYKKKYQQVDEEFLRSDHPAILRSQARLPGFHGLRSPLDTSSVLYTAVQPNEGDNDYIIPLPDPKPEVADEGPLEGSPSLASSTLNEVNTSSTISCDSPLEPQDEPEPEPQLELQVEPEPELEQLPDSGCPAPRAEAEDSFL
How it was run: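 PAE cells overexpressing human PDGFRβ, serum-starved 16 h (0.1% FBS), compound 1 h at 37° C (0.5% DMSO), then 1 μg/mL PDGF-BB with 2 mM Na3VO4 for 8 min. Receptor captured by anti-PDGFRβ, phosphotyrosine detected by HRP-PY20/TMB at 450 nm; IC50 by four-parameter fit.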

[1] = Human Liver Microsome (HLM) Assay; type: in vitro ADME
Procedure: Compound metabolism in human liver microsomes was measured by LC-MS analytical assay procedures as follows. First, human liver microsomes (HLM) were thawed and diluted to 5 mg/mL with cold 100 mM potassium phosphate (KPO4) buffer. Appropriate amounts of KPO4 buffer, NADPH-regenerating solution (containing B-NADP, glucose-6-phosphate, glucose-6-phosphate dehydrogenase, and MgCl2), and HLM were preincubated in 13×100 mm glass tubes at 37 C. for 10 min. (3 tubes per test compound—triplicate). Test compound (5 µM final) was added to each tube to initiate reaction and was mixed by gentle vortexing, followed by incubation at 37° C. […] Samples were centrifuged at 4000 rpm for 20 min. to precipitate proteins and salt (Beckman Allegra 6KR, S/N ALK98DO6, #634). Supernatant was transferred to new 12×75 mm glass tubes and evaporated by Speed-Vac centrifugal vacuum evaporator. Samples were reconstituted in 200 μL 0.1% formic acid/acetonitrile (90/10) and vortexed vigorously to dissolve. The samples were then transferred to separate polypropylene microcentrifuge tubes and centrifuged at 14000×g for 10 min. (Fisher Micro 14, S/N M0017580). […]
The combined compound samples were injected into the LC-MS system, composed of a Hewlett-Packard HP 1100 diode array HPLC and a Micromass Quattro II triple quadruple mass spectrometer operating in positive electrospray SIR mode (programmed to scan specifically for the molecular ion of each test compound. Each test compound peak was integrated at each timepoint. […]

[2] = molecular target: T2, unphosphorylated VEGF-R2Δ50 (Homo sapiens, UniProt P35968, DEL940-989/E990V); assay: VEGF-R2 coupled spectrophotometric assay, unphosphorylated construct (FLVK); type: biochemical; conditions: % inhibition at 50 nM compound; read-out: FLVK Ki % inh @ 50 nM
T2 construct: VEGF-R2Δ50 contains residues 806–939 and 990–1171; made in house; host or cells: baculovirus/insect cell system
T2 sequence (P35968 with tags, fused parts or gaps DEL940-989/E990V limits assumed): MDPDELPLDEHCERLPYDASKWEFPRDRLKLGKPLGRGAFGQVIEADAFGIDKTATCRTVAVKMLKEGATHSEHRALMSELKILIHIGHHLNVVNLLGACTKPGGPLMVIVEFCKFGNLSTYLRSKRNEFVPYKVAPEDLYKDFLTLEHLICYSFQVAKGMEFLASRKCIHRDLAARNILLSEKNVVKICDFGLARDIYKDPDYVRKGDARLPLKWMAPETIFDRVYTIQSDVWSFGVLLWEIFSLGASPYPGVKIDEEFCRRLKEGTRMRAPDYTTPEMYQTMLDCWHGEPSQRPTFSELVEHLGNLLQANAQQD
How it was run: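 Human VEGF-R2Δ50 kinase (residues 806–939/990–1171, baculovirus-expressed; autophosphorylated form pre-treated with 3 mM ATP, 4° C, 2 h), 5–40 nM, with poly(E4Y1) in 200 mM HEPES pH 7.5; ADP coupled via PK/LDH to NADH oxidation at 340 nm. Phosphorylated: 1 mM ATP, 5.1 mM poly(E4Y1), 25 mM MgCl2; unphosphorylated: 3 mM ATP, 20 mM poly(E4Y1), 60 mM MgCl2, 2 mM MnCl2. Ki from activity at varying compound levels.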

SMILES | pIC50 (PDGFRβ) | % remaining (HLM) ([1]; @0.5 h) | inhibition at 0.05 µM [2] | % remaining (HLM) ([1]; @2 h)
O=C(NCC#CCO)c1ccccc1Nc1ccc2c(/C=C/c3ccccn3)n[nH]c2c1 [Example 64, N-(4-Hydroxy-but-2-ynyl)-2-[3-(2-pyridin-2-yl-vinyl)-1H-indazol-6-ylamino]-benzamide] | 8.26 | 66@0.5 h % | 94% | –
O=C(NC1CCC1)c1ccccc1Nc1ccc2c(/C=C/c3ccccn3)n[nH]c2c1 [Example 3(j), N-Cyclobutyl-2-[3-((E)-2-pyridin-2-yl-vinyl)-1H-indazol-6-ylamino]-benzamide] | 8.33 | 65@0.5 h % | 80% | –
COc1ccccc1CNC(=O)c1ccccc1Nc1ccc2c(/C=C/c3ccccn3)n[nH]c2c1 [Example 3(h), N-(2-Methoxy-benzyl)-2-[3-((E)-2-pyridin-2-yl-vinyl)-1H-indazol-6-ylamino]-benzamide] | 9.20 | 75@0.5 h % | 96% | –
C#CCNC(=O)c1ccccc1Nc1ccc2c(/C=C/c3cc(C)ccn3)n[nH]c2c1 [Example 32, 2-{3-[(E)-2-(4-Methyl-pyridin-2-yl)-vinyl]-1H-indazol-6-ylamino}-N-prop-2-ynyl-benzamide] | 9.30 | 97@0.5 h % | 78% | –
C=C(C)CNC(=O)c1ccccc1Nc1ccc2c(/C=C/c3ccccn3)n[nH]c2c1 [Example 3(k), N-(2-Methyl-allyl)-2-[3-((E)-2-pyridin-2-yl-vinyl)-1H-indazol-6-ylamino]-benzamide] | 8.30 | 75@0.5 h % | 74% | –
O=C(NC1CC1)c1ccccc1Nc1ccc2c(/C=C/c3ccccn3)n[nH]c2c1 [Example 3(d), N-Cyclopropyl-2-[3-((E)-2-pyridin-2-yl-vinyl)-1H-indazol-6-ylamino]-benzamide] | 8.46 | – | 89% | 68@2 h %
Cc1ccnc(/C=C/c2n[nH]c3cc(Nc4ccccc4C(=O)NC4CC4)ccc23)c1 [Example 2(h), N-Cyclopropyl-2-{3-[(E)-2-(4-methyl-pyridin-2-yl)-vinyl]-1H-indazol-6-ylamino}-benzamide] | 8.55 | 74@0.5 h % | 84% | –
Cc1cc(C)nc(/C=C/c2n[nH]c3cc(Nc4ccccc4C(=O)NCC#CCO)ccc23)c1 [Example 10, 2-{3-[(E)-2-(4,6-Dimethyl-pyridin-2-yl)-vinyl]-1H-indazol-6-ylamino}-N-(4-hydroxy-but-2-ynyl)-benzamide] | 7.68 | 80@0.5 h % | 76% | –
